From patent US9533987B2, “Heterocyclic derivates” (KALVISTA PHARMACEUTICALS LIMITED, priority 2013, dated 2017)
pIC50: −log10 of the molar value.

What was measured:
[1] = biological target: Human plasma kallikrein (Homo sapiens (Human), UniProt P03952); assay: Determination of the IC50 for plasma kallikrein (fluorogenic substrate H-DPro-Phe-Arg-AFC); format: biochemical; settings: 37° C., read-out: IC50 (human PKaI)
Experimental: Determination of the IC50 for Plasma Kallikrein
(§1) Human plasma kallikrein (Protogen) was incubated at 37° C. with the fluorogenic substrate H-DPro-Phe-Arg-AFC and various concentrations of the test compound. Residual enzyme activity (initial rate of reaction) was determined by measuring the change in […] at 410 nm and the IC50 value for the test compound was determined.

[2] = biological target: Human KLK1 (Homo sapiens (Human), UniProt P06870); assay: Determination of the IC50 for KLK1 (fluorogenic substrate H-DVal-Leu-Arg-AFC); format: biochemical; settings: 37° C.
Experimental: Determination of the IC50 for KLK1
as §1, with “KLK1 (Callbiochem)” for “plasma kallikrein (Protogen)”, “H-DVal-Leu-Arg-AFC” for “H-DPro-Phe-Arg-AFC”

Chain of Human KLK1 (P06870 25-262): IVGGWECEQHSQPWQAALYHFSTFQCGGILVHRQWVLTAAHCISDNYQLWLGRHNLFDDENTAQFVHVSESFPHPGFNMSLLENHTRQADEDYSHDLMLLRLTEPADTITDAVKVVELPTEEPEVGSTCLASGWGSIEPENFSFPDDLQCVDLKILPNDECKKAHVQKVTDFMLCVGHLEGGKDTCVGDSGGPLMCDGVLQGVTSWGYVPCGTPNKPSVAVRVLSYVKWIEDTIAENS
Chain of Human plasma kallikrein (P03952 391-638): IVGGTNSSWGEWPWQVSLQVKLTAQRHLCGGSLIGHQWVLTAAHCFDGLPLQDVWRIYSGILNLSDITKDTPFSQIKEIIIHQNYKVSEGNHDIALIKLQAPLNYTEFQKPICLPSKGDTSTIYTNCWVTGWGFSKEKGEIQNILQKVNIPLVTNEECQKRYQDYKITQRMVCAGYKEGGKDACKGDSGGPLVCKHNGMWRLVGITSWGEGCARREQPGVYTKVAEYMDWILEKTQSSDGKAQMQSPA
Chain of Human plasma kallikrein (P03952 20-390 partner): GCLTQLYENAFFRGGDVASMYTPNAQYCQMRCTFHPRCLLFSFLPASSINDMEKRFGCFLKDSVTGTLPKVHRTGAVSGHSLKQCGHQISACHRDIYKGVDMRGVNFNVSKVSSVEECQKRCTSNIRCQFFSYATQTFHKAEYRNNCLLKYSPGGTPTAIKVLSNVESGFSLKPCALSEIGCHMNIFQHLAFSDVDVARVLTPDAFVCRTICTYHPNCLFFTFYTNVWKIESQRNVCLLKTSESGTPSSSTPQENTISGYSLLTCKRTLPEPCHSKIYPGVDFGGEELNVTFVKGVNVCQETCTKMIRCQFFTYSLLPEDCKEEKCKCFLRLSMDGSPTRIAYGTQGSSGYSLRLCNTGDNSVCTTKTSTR

Compound `Nc1nccc2cc(CNC(=O)c3cn(Cc4ccc(OCC(F)(F)F)nc4)nc3C3CC3)ccc12` [Example 92, 3-Cyclopropyl-1-[6-(2,2,2-trifluoro-ethoxy)-pyridin-3-ylmethyl]-1H-pyrazole-4-carboxylic acid (1-amino-isoquinolin-6-ylmethyl)-amide] has a pIC50 [1] of 6.96 and a pIC50 [2] of less than 5.00.
With `Nc1nccc2cc(CNC(=O)c3cn(Cc4ccc(Cn5cccn5)nc4)nc3C(F)(F)F)ccc12` [Example 79, 1-(6-Pyrazol-1-ylmethyl-pyridin-3-ylmethyl)-3-trifluoromethyl-1H-pyrazole-4-carboxylic acid (1-amino-isoquinolin-6-ylmethyl)-amide] the pIC50 [1] was 8.64 and the pIC50 [2] was less than 5.00.
`Nc1nccc2cc(CNC(=O)c3cn(Cc4cnc(N5CCCC5)c(Cl)c4)nc3C3CC3)ccc12` [Example 97, 1-(5-Chloro-6-pyrrolidin-1-yl-pyridin-3-ylmethyl)-3-cyclopropyl-1H-pyrazole-4-carboxylic acid (1-amino-isoquinolin-6-ylmethyl)-amide] gave a pIC50 [1] of 7.73 and a pIC50 [2] of 5.52.
For `Nc1nccc2cc(CNC(=O)c3cn(Cc4cnc(N5CCCC5)c(F)c4)nc3C(F)(F)F)ccc12` [Example 73, 1-(5-Fluoro-6-pyrrolidin-1-yl-pyridin-3-ylmethyl)-3-trifluoromethyl-1H-pyrazole-4-carboxylic acid (1-amino-isoquinolin-6-ylmethyl)-amide], the pIC50 [1] was 7.65 and the pIC50 [2] was 5.80.
In the case of `COCCN(C)c1ccc(Cn2cc(C(=O)NCc3ccc4c(N)nccc4c3)c(C3CC3)n2)cn1` [Example 86, 3-Cyclopropyl-1-{6-[(2-methoxy-ethyl)-methyl-amino]-pyridin-3-ylmethyl}-1H-pyrazole-4-carboxylic acid (1-amino-isoquinolin-6-ylmethyl)-amide], the pIC50 [1] was 7.25 and the pIC50 [2] was 5.06.
With `Nc1nccc2cc(CNC(=O)c3cn(Cc4cnc(N5CCCC5)cn4)nc3C(F)(F)F)ccc12` [Example 65, 1-(5-Pyrrolidin-1-yl-pyrazin-2-ylmethyl)-3-trifluoromethyl-1H-pyrazole-4-carboxylic acid (1-amino-isoquinolin-6-ylmethyl)-amide] the pIC50 [1] was 7.83 and the pIC50 [2] was 6.02.
For `CCOc1cc(Cn2cc(C(=O)NCc3ccc4c(N)nccc4c3)c(C(F)(F)F)n2)ccn1` [Example 80, 1-(2-Ethoxy-pyridin-4-ylmethyl)-3-trifluoromethyl-1H-pyrazole-4-carboxylic acid (1-amino-isoquinolin-6-ylmethyl)-amide], the pIC50 [1] was 6.69 and the pIC50 [2] was 5.03.
`CCC(C)Oc1ccc(Cn2cc(C(=O)NCc3ccc4c(N)nccc4c3)c(C(F)(F)F)n2)cn1` (stereo not drawn) [Example 72, 1-(6-sec-Butoxy-pyridin-3-ylmethyl)-3-trifluoromethyl-1H-pyrazole-4-carboxylic acid (1-amino-isoquinolin-6-ylmethyl)-amide] showed a pIC50 [1] of 6.93 and a pIC50 [2] of less than 5.00.
In the case of `O=C(NCc1cnc2[nH]ccc2c1)c1cn(Cc2ccc(Cn3ccccc3=O)cc2)nc1C(F)(F)F` [Example 7, 1-[4-(2-Oxo-2H-pyridin-1-ylmethyl)-benzyl]-3-trifluoromethyl-1H-pyrazole-4-carboxylic acid (1H-pyrrolo[2,3-b]pyridin-5-ylmethyl)-amide], the pIC50 [1] was 8.27 and the pIC50 [2] was less than 5.00.
`CCOc1ccc(Cn2cc(C(=O)NCc3ccc4c(N)nccc4c3)c(-c3ccccc3)n2)cn1` [Example 26, 1-(6-Ethoxy-pyridin-3-ylmethyl)-3-phenyl-1H-pyrazole-4-carboxylic acid (1-amino-isoquinolin-6-ylmethyl)-amide] was tested, and the pIC50 [1] was 6.69 and the pIC50 [2] was 5.33.
`Nc1nn(Cc2ccc(N3CCCC3)nc2)cc1C(=O)NCc1ccc2c(N)nccc2c1` [Example 99, 3-Amino-1-(6-pyrrolidin-1-yl-pyridin-3-ylmethyl)-1H-pyrazole-4-carboxylic acid (1-amino-isoquinolin-6-ylmethyl)-amide] was tested, and the pIC50 [1] was 8.38 and the pIC50 [2] was 5.46.
For `Cc1cnn(Cc2ccc(Cn3cc(C(=O)NCc4ccc5c(N)nccc5c4)c(N4CCOCC4)n3)cc2)c1` [Example 21, 1-[4-(4-Methyl-pyrazol-1-ylmethyl)-benzyl]-3-morpholin-4-yl-1H-pyrazole-4-carboxylic acid (1-amino-isoquinolin-6-ylmethyl)-amide], the pIC50 [1] was 8.19 and the pIC50 [2] was less than 5.00.
`Cc1cnn(Cc2ccc(Cn3cc(C(=O)NCc4ccc5c(N)nccc5c4)c(-c4ccsc4)n3)cc2)c1` [Example 42, 1-[4-(4-Methyl-pyrazol-1-ylmethyl)-benzyl]-3-thiophen-3-yl-1H-pyrazole-4-carboxylic acid (1-amino-isoquinolin-6-ylmethyl)-amide] showed a pIC50 [1] of 8.31 and a pIC50 [2] of 5.04.
Work on `Cc1cnn(Cc2ccc(Cn3c(C)cc(C(=O)NCc4ccc5c(N)nccc5c4)c3C)cc2)c1` [Example 9, 2,5-Dimethyl-1-[4-(4-methyl-pyrazol-1-ylmethyl)-benzyl]-1H-pyrrole-3-carboxylic acid (1-amino-isoquinolin-6-ylmethyl)-amide] yielded a pIC50 [1] of 7.84 and a pIC50 [2] of less than 5.00.
`Cc1cnn(Cc2ccc(Cn3cc(C(=O)NCc4ccnc5[nH]ccc45)c(C(F)(F)F)n3)cc2)c1` [Example 125, 1-[4-(4-Methyl-pyrazol-1-ylmethyl)-benzyl]-3-trifluoromethyl-1H-pyrazole-4-carboxylic acid (1H-pyrrolo[2,3-b]pyridin-4-ylmethyl)-amide] was tested, and the pIC50 [1] was 5.40 and the pIC50 [2] was less than 5.00.
Work on `Cc1cnn(Cc2ccc(Cn3cc(C(=O)NCc4ccc5c(N)nccc5c4)c(=O)[nH]3)cc2)c1` [Example 19, 1-[4-(4-Methyl-pyrazol-1-ylmethyl)-benzyl]-3-oxo-2,3-dihydro-1H-pyrazole-4-carboxylic acid (1-amino-isoquinolin-6-ylmethyl)-amide] yielded a pIC50 [1] of 6.00 and a pIC50 [2] of less than 5.00.
`Nc1nccc2cc(CNC(=O)c3cn(Cc4ccc(Cn5ccnn5)cc4)nc3C3CC3)ccc12` [Example 91, 3-Cyclopropyl-1-(4-[1,2,3]triazol-1-ylmethyl-benzyl)-1H-pyrazole-4-carboxylic acid (1-amino-isoquinolin-6-ylmethyl)-amide] was tested, and the pIC50 [1] was 7.86 and the pIC50 [2] was less than 5.00.
Compound `Cc1cnn(Cc2ccc(Cn3cc(C(=O)NCc4ccc5c(N)nccc5c4)c(C#N)n3)cc2)c1` [Example 16, 3-Cyano-1-[4-(4-methyl-pyrazol-1-ylmethyl)-benzyl]-1H-pyrazole-4-carboxylic acid (1-amino-isoquinolin-6-ylmethyl)-amide] has a pIC50 [1] of 9.13 and a pIC50 [2] of 5.24.
`Cc1cnn(Cc2ccc(Cn3cc(C(=O)NCc4cnc5[nH]ccc5c4)c(C(F)(F)F)n3)cc2)c1` [Example 121, 1-[4-(4-Methyl-pyrazol-1-ylmethyl)-benzyl]-3-trifluoromethyl-1H-pyrazole-4-carboxylic acid (1H-pyrrolo[2,3-b]pyridin-5-ylmethyl)-amide] showed a pIC50 [1] of 7.21 and a pIC50 [2] of less than 5.00.
`Nc1nccc2cc(CNC(=O)c3cn(Cc4ccc(Oc5ccccc5)nc4)nc3C3CC3)ccc12` [Example 93, 3-Cyclopropyl-1-(6-phenoxy-pyridin-3-ylmethyl)-1H-pyrazole-4-carboxylic acid (1-amino-isoquinolin-6-ylmethyl)-amide] showed a pIC50 [1] of 7.12 and a pIC50 [2] of less than 5.00.
Compound `CCn1c(C(=O)NCc2ccc3c(N)nccc3c2)cc(C)c1Cc1csc(-c2ccccc2)n1` [Example 29, 1-Ethyl-4-methyl-5-(2-phenyl-thiazol-4-ylmethyl)-1H-pyrrole-2-carboxylic acid (1-amino-isoquinolin-6-ylmethyl)-amide] has a pIC50 [1] of 6.21 and a pIC50 [2] of less than 5.00.
`Cc1cc(C(=O)NCc2cnc3[nH]ccc3c2)c(C)n1Cc1csc(-c2ccccc2)n1` [Example 3, 2,5-Dimethyl-1-(2-phenyl-thiazol-4-ylmethyl)-1H-pyrrole-3-carboxylic acid (1H-pyrrolo[2,3-b]pyridin-5-ylmethyl)-amide] showed a pIC50 [1] of 5.57 and a pIC50 [2] of less than 5.00.
`C[C@@H]1CCN(c2ccc(Cn3cc(C(=O)NCc4ccc5c(N)nccc5c4)c(C(F)(F)F)n3)cn2)C1` [Example 58, 1-[6-((R)-3-Methyl-pyrrolidin-1-yl)-pyridin-3-ylmethyl]-3-trifluoromethyl-1H-pyrazole-4-carboxylic acid (1-amino-isoquinolin-6-ylmethyl)-amide] showed a pIC50 [1] of 7.88 and a pIC50 [2] of 5.51.
In the case of `COc1cc(Cn2cc(C(=O)NCc3ccc4c(N)nccc4c3)c(C3CC3)n2)cc(N2CCCC2)n1` [Example 88, 3-Cyclopropyl-1-(2-methoxy-6-pyrrolidin-1-yl-pyridin-4-ylmethyl)-1H-pyrazole-4-carboxylic acid (1-amino-isoquinolin-6-ylmethyl)-amide], the pIC50 [1] was 6.95 and the pIC50 [2] was 5.02.
With `COc1cc(Cn2cc(C(=O)NCc3ccc4c(N)nccc4c3)c(C3CC3)n2)cnc1N1CCCC1` [Example 25, 3-Cyclopropyl-1-(5-methoxy-6-pyrrolidin-1-yl-pyridin-3-ylmethyl)-1H-pyrazole-4-carboxylic acid (1-amino-isoquinolin-6-ylmethyl)-amide] the pIC50 [1] was 8.14 and the pIC50 [2] was 5.66.
With `Nc1nccc2cc(CNC(=O)c3cn(Cc4ccc(N5CCC(CO)C5)nc4)nc3C(F)(F)F)ccc12` (stereo not drawn) [Example 69, 1-[6-(3-Hydroxymethyl-pyrrolidin-1-yl)-pyridin-3-ylmethyl]-3-trifluoromethyl-1H-pyrazole-4-carboxylic acid (1-amino-isoquinolin-6-ylmethyl)-amide] the pIC50 [1] was 7.49 and the pIC50 [2] was 5.32.
Work on `CCOc1ccc(Cn2cc(C(=O)NCc3ccc4c(N)nccc4c3)c(N)n2)cn1` [Example 98, 3-Amino-1-(6-ethoxy-pyridin-3-ylmethyl)-1H-pyrazole-4-carboxylic acid (1-amino-isoquinolin-6-ylmethyl)-amide] yielded a pIC50 [1] of 7.20 and a pIC50 [2] of 5.50.
